In US10017823B2, “Analytical method for increasing susceptibility of molecular targeted therapy in hepatocellular carcinoma” (CBS BIOSCIENCE, CO., LTD, priority 2013, dated 2018):

Legend:
hepatocellular carcinoma = assay: Susceptibility assay in sorafenib-administered patients (tumor response according to RECIST); format: in vivo
Description: The term “patient having susceptibility to sorafenib treatment” refers to a hepatocellular carcinoma patient showing response according to the sorafenib administration (i.e., tumor response). […] N Engl J Med 359: 378-390.
In the samples derived from 23 sorafenib-administered patients, we analyzed the relationship between the 7 marker gene expression patterns and the sorafenib efficacies. From the hierarchical clustering analysis results of FIG. 5, clustering without primary classification according to BCLC stages was performed according to expression ratio (tumor/non-tumor) of the target molecules; and then the 23 sorafenib-administered patients (i to xxiii) were correspondingly arranged thereto (FIG. 6). […] N Engl J Med 359: 378-390.

advanced HCC = settings: HCC patients, stated as very low; cited from earlier work

For `CNC(=O)c1cc(Oc2ccc(NC(=O)Nc3ccc(Cl)c(C(F)(F)F)c3)cc2)ccn1` [sorafenib], the “tumor response according to RECIST” value (hepatocellular carcinoma; patients viii, x, xi of the 23 sorafenib-administered HCC patients) is listed as “partial response”, the “susceptibility to the sorafenib treatment (RECIST tumor response)” value (hepatocellular carcinoma; remaining 20 of the 23 sorafenib-administered HCC patients) is listed as “not susceptible” and the “response rate of sorafenib” value (advanced HCC) is listed as “about 3%”.
